Results reported in patent publication US20170273932A1, “LYOPHILIZED COMPOSITIONS CONTAINING A METAP-2 INHIBITOR” (Zafgen, Inc., priority 2014, published 2017).
≈ marks a conversion by molar mass, not a printed value.

Columns and labels:
Format in all cases: physicochemical
[1] = Particle size of jet milled ZGN-440; settings: for D10 / D50 / D90: after jet milling
Description: (§1) Jet milling was conducted with ZGN-440 having an initial D90 of 211.9 μm prior to jet milling.
(§2) For FPS5, jet milled ZGN-440 was recovered in greater than 90% yield. […] The particle size generated is suitable for use with a 29-gauge to 31-gauge needle.

[2] = Polymorphic form / crystallinity after suspension, jet milling or microfluidization (XRPD); settings: for crystallinity and polymorphic form after jet milling: XRPD
Description: The following processes may be used to prepare an appropriate particle size of ZGN-440 (i) microfluidization; (ii) jet milling; (iii) ball milling; and suspension homogenization.
as §1, §2

physchem = assay: physchem
From the text: In some embodiments, the crystalline form of Form A 6-O-(4-dimethylaminoethoxy) cinnamoyl fumagillol, free base has an IR absorption spectrum having at least one or more characteristic peaks at about 2971, 2938, 2817, 2762, 1163, 1103, 832 cm^−1. In this context, the term “about” means that the cm^−1 values can vary, e.g., up to ±5 cm^−1. In certain embodiments, the crystalline form of Form A 6-O-(4-dimethylaminoethoxy)cinnamoyl fumagillol has IR absorption spectrum shown in FIG. 5 of U.S. Pat. No. 8,349,891, U.S. Pat. No. 8,735,447, and WO 2012/064838. In some embodiments, the crystalline form (e.g., Form A) of Form A 6-O-(4-dimethylaminoethoxy)cinnamoyl fumagillol, free base is characterized by a melting point of about 83° C., for example, and characterized by a differential scanning calorimetry profile with an endotherm at about 83.1° C. […] The solubility of Form A in solvent (e.g., an aqueous solution that may include a buffer) with a pH greater or equal to about 8.0 may be less than about 0.2 mg/mL at ca. 20° C.

Storage of Form C = settings: about three days of storage at either 5° C. or ambient temperature
From the text: In other embodiments, Form C of 6-O-(4-dimethylaminoethoxy)cinnamoyl fumagillol, free base has an IR absorption spectrum having characteristic peaks at about at least one of: 831, 894, 1106, 1159, 1249, 1287, 1512, 1602, 1631, and 1707 cm^−1. In this context, the term “about” means that the cm^−1 values can vary, e.g. up to ±5 cm^−1. In certain embodiments, Form C of 6-O-(4-dimethylaminoethoxy)cinnamoyl fumagillol, free base is characterized by the IR absorption spectrum shown in FIG. 15 of U.S. Pat. No. 8,349,891, U.S. Pat. No. 8,735,447, and WO 2012/064838. […] Accordingly, in certain embodiments, the compositions described herein can include Form C and/or Form A derived from Form C.

D10 [1]	D50 [1]	D90 [1]	SMILES	crystallinity and polymorphic form after jet milling [2]	also measured
1.1 µm	2.4 µm	5.2 µm	CO[C@@H]1[C@H](OC(=O)/C=C/c2ccc(OCCN(C)C)cc2)CC[C@]2(CO2)[C@H]1[C@@]1(C)O[C@@H]1CC=C(C)C [FPS/1]		
1.5 µm	6.5 µm	13.2 µm	CO[C@@H]1[C@H](OC(=O)/C=C/c2ccc(OCCN(C)C)cc2)CC[C@]2(CO2)[C@H]1[C@@]1(C)O[C@@H]1CC=C(C)C [FPS/4]		
1.7 µm	9.4 µm	25.1 µm	CO[C@@H]1[C@H](OC(=O)/C=C/c2ccc(OCCN(C)C)cc2)CC[C@]2(CO2)[C@H]1[C@@]1(C)O[C@@H]1CC=C(C)C [NAT]	retained its crystallinity and polymorphic form	
1.1 µm	3 µm	6.9 µm	CO[C@@H]1[C@H](OC(=O)/C=C/c2ccc(OCCN(C)C)cc2)CC[C@]2(CO2)[C@H]1[C@@]1(C)O[C@@H]1CC=C(C)C [FPS/2]		
1.2 µm	6.1 µm	14.3 µm	CO[C@@H]1[C@H](OC(=O)/C=C/c2ccc(OCCN(C)C)cc2)CC[C@]2(CO2)[C@H]1[C@@]1(C)O[C@@H]1CC=C(C)C [FPS/5]	crystalline and the desired polymorph	
			CO[C@@H]1[C@H](OC(=O)/C=C/c2ccc(OCCN(C)C)cc2)CC[C@]2(CO2)[C@H]1[C@@]1(C)O[C@@H]1CC=C(C)C [ZGN-440, 6-O-(4-dimethylaminoethoxy) cinnamoyl fumagillol]	retains its crystallinity and its polymorphic structure	solubility (physchem; 20 °C, organic solvent or mixture): ~25 mg/mL (≈ 50 mM); solubility (physchem; 20 °C, pH 8, aqueous buffer): < 0.2 mg/mL; solubility (physchem; 50 °C, organic solvent or mixture): ~102 mg/mL (≈ 204 mM); polymorphic form ([2]; suspended in different aqueous diluents (e.g., for extended times) or jet milled or microfluidized): no change in the polymorphic form; initial D90 ([1]; prior to jet milling): 211.9 μm
1.2 µm	3.9 µm	9.5 µm	CO[C@@H]1[C@H](OC(=O)/C=C/c2ccc(OCCN(C)C)cc2)CC[C@]2(CO2)[C@H]1[C@@]1(C)O[C@@H]1CC=C(C)C [FPS/3]		
			CO[C@@H]1[C@H](OC(=O)/C=C/c2ccc(OCCN(C)C)cc2)CC[C@]2(CO2)[C@H]1[C@@]1(C)O[C@@H]1CC=C(C)C [Form C, 6-O-(4-dimethylaminoethoxy) cinnamoyl fumagillol]		conversion of crystalline form on storage (Storage of Form C): converts or reverts to Form A
